From patent US20040259851A1, “Methods of administering estrogens and progestins” (priority 2003, published 2004)
Like-named read-outs stand apart in the source and are kept apart here.

Key:
[1] = Megestrol Acetate in plasma samples by GC/MS; format: in vivo; conditions: human; for concentration at 1 h: 1 h post dosing; for concentration at 2 h: 2 h post dosing; for concentration at 4 h: 4 h post dosing; for concentration at 8 h: 8 h post dosing; for concentration at 12 h: 12 h post dosing; for concentration at 24 h: 24 h post dosing; for concentration at 36 h: 36 h post dosing; for concentration at 48 h: 48 h post dosing; for concentration at 0 h: time 0 h (predose)
Procedure: A total of 90 plasma samples were analyzed for their content of Megestrol Acetate by GC/MS.
In this study megestrol acetate was utilized and medroxyprogesterone acetate was utilized as an internal standard.
For each sample, 1 mL of human plasma was aliquoted and spiked with 25 μL of the internal standard working solution. In the following, the samples were alkalized and extracted with a toluene/diisopropylether mixture. The resulting extracts were stored in a refrigerator until measurement. Just prior to measurement, the sample extracts were evaporated to dryness and reconstituted in toluene. 2 μL of the resulting solution were injected into the GC/MS system. The gas chromatograph was run in the temperature-programmed mode to achieve improved separation. Positive ions chemical ionization (PICI) was used for mass selective detection. Selected mass/charge ratios were m/z 385.2 for megestrol acetate and m/z 387.2 for the internal standard.
The time measured represents the number of hours passed post dosing. Subjects 2, 4, 6, 8 and 10 all received a 6 mg dose of megestrol acetate. Subjects 1, 3, 5, 7 and 9 all received a 1.5 mg dose of megestrol acetate. […] A third measurement was not possible due to insufficient sample. During the study, 3 series of plasma calibration curves were measured (prevalidation run not considered).

menopausal hot flashes = conditions: cited from earlier work

- concentration at 1 h ([1]; 1.5 mg, Sub 1, 1.5 mg dose): 7.82 ng/mL
- concentration at 2 h ([1]; 1.5 mg, Sub 1, 1.5 mg dose): 2.74 ng/mL
- concentration at 4 h ([1]; 1.5 mg, Sub 1, 1.5 mg dose): 1.01 ng/mL
- concentration at 8 h ([1]; 1.5 mg, Sub 1, 1.5 mg dose): 0.607 ng/mL
- concentration at 12 h ([1]; 1.5 mg, Sub 1, 1.5 mg dose): 0.413 ng/mL
- concentration at 24 h ([1]; 1.5 mg, Sub 1, 1.5 mg dose): 0.399 ng/mL
- concentration at 36 h ([1]; 1.5 mg, Sub 1, 1.5 mg dose): 0.504 ng/mL
- concentration at 48 h ([1]; 1.5 mg, Sub 1, 1.5 mg dose): 0.463 ng/mL
- concentration at 0 h ([1]; 1.5 mg, Sub 1, 1.5 mg dose): 0.492 ng/mL
- concentration at 1 h ([1]; 1.5 mg, Sub 3, 1.5 mg dose): 9.32 ng/mL
- concentration at 2 h ([1]; 1.5 mg, Sub 3, 1.5 mg dose): 5.24 ng/mL
- concentration at 4 h ([1]; 1.5 mg, Sub 3, 1.5 mg dose): 3.04 ng/mL
- concentration at 8 h ([1]; 1.5 mg, Sub 3, 1.5 mg dose): 2.66 ng/mL
- concentration at 12 h ([1]; 1.5 mg, Sub 3, 1.5 mg dose): 1.98 ng/mL
- concentration at 24 h ([1]; 1.5 mg, Sub 3, 1.5 mg dose): 1.8 ng/mL
- concentration at 36 h ([1]; 1.5 mg, Sub 3, 1.5 mg dose): 1.99 ng/mL
- concentration at 48 h ([1]; 1.5 mg, Sub 3, 1.5 mg dose): 1.48 ng/mL
- concentration at 0 h ([1]; 1.5 mg, Sub 3, 1.5 mg dose): 1.98 ng/mL
- concentration at 1 h ([1]; 1.5 mg, Sub 5, 1.5 mg dose): 4.98 ng/mL
- concentration at 2 h ([1]; 1.5 mg, Sub 5, 1.5 mg dose): 2.75 ng/mL
- concentration at 4 h ([1]; 1.5 mg, Sub 5, 1.5 mg dose): 0.959 ng/mL
- concentration at 8 h ([1]; 1.5 mg, Sub 5, 1.5 mg dose): 0.521 ng/mL
- concentration at 12 h ([1]; 1.5 mg, Sub 5, 1.5 mg dose): 0.353 ng/mL
- concentration at 24 h ([1]; 1.5 mg, Sub 5, 1.5 mg dose): 0.344 ng/mL
- concentration at 36 h ([1]; 1.5 mg, Sub 5, 1.5 mg dose): 0.409 ng/mL
- concentration at 48 h ([1]; 1.5 mg, Sub 5, 1.5 mg dose): 0.267 ng/mL
- concentration at 0 h ([1]; 1.5 mg, Sub 5, 1.5 mg dose): 0.426 ng/mL
- concentration at 1 h ([1]; 1.5 mg, Sub 7, 1.5 mg dose): 7.82 ng/mL
- concentration at 2 h ([1]; 1.5 mg, Sub 7, 1.5 mg dose): 4.83 ng/mL
- concentration at 4 h ([1]; 1.5 mg, Sub 7, 1.5 mg dose): 1.99 ng/mL
- concentration at 8 h ([1]; 1.5 mg, Sub 7, 1.5 mg dose): 1.47 ng/mL
- concentration at 12 h ([1]; 1.5 mg, Sub 7, 1.5 mg dose): 1.59 ng/mL
- concentration at 24 h ([1]; 1.5 mg, Sub 7, 1.5 mg dose): 0.771 ng/mL
- concentration at 36 h ([1]; 1.5 mg, Sub 7, 1.5 mg dose): 0.592 ng/mL
- concentration at 48 h ([1]; 1.5 mg, Sub 7, 1.5 mg dose): 0.564 ng/mL
- concentration at 0 h ([1]; 1.5 mg, Sub 7, 1.5 mg dose): 0.851 ng/mL
- concentration at 1 h ([1]; 1.5 mg, Sub 9, 1.5 mg dose): 14.4 ng/mL
- concentration at 2 h ([1]; 1.5 mg, Sub 9, 1.5 mg dose): 9.21 ng/mL
- concentration at 4 h ([1]; 1.5 mg, Sub 9, 1.5 mg dose): 4.02 ng/mL
- concentration at 8 h ([1]; 1.5 mg, Sub 9, 1.5 mg dose): 1.64 ng/mL
- concentration at 12 h ([1]; 1.5 mg, Sub 9, 1.5 mg dose): 1.59 ng/mL
- concentration at 24 h ([1]; 1.5 mg, Sub 9, 1.5 mg dose): 1.09 ng/mL
- concentration at 36 h ([1]; 1.5 mg, Sub 9, 1.5 mg dose): 1.3 ng/mL
- concentration at 48 h ([1]; 1.5 mg, Sub 9, 1.5 mg dose): 1.31 ng/mL
- concentration at 0 h ([1]; 1.5 mg, Sub 9, 1.5 mg dose): 1.4 ng/mL
- concentration at 1 h ([1]; 6 mg, Sub 2, 6 mg dose): 32.9 ng/mL
- concentration at 2 h ([1]; 6 mg, Sub 2, 6 mg dose): 28.1 ng/mL
- concentration at 4 h ([1]; 6 mg, Sub 2, 6 mg dose): 9.89 ng/mL
- concentration at 8 h ([1]; 6 mg, Sub 2, 6 mg dose): 6.98 ng/mL
- concentration at 12 h ([1]; 6 mg, Sub 2, 6 mg dose): 5.84 ng/mL
- concentration at 24 h ([1]; 6 mg, Sub 2, 6 mg dose): 4.4 ng/mL
- concentration at 36 h ([1]; 6 mg, Sub 2, 6 mg dose): 5.04 ng/mL
- concentration at 48 h ([1]; 6 mg, Sub 2, 6 mg dose): 3.58 ng/mL
- concentration at 0 h ([1]; 6 mg, Sub 2, 6 mg dose): 6.48 ng/mL
- concentration at 1 h ([1]; 6 mg, Sub 4, 6 mg dose): 37.4 ng/mL
- concentration at 2 h ([1]; 6 mg, Sub 4, 6 mg dose): 18.7 ng/mL
- concentration at 4 h ([1]; 6 mg, Sub 4, 6 mg dose): 7.22 ng/mL
- concentration at 8 h ([1]; 6 mg, Sub 4, 6 mg dose): 4.7 ng/mL
- concentration at 12 h ([1]; 6 mg, Sub 4, 6 mg dose): 3.05 ng/mL
- concentration at 24 h ([1]; 6 mg, Sub 4, 6 mg dose): 2.17 ng/mL
- concentration at 36 h ([1]; 6 mg, Sub 4, 6 mg dose): 3.58 ng/mL
- concentration at 48 h ([1]; 6 mg, Sub 4, 6 mg dose): 2.9 ng/mL
- concentration at 0 h ([1]; 6 mg, Sub 4, 6 mg dose): 4.44 ng/mL
- concentration at 1 h ([1]; 6 mg, Sub 6, 6 mg dose): 44 ng/mL
- concentration at 2 h ([1]; 6 mg, Sub 6, 6 mg dose): 32.1 ng/mL
- concentration at 4 h ([1]; 6 mg, Sub 6, 6 mg dose): 12.6 ng/mL
- concentration at 8 h ([1]; 6 mg, Sub 6, 6 mg dose): 7.61 ng/mL
- concentration at 12 h ([1]; 6 mg, Sub 6, 6 mg dose): 5.8 ng/mL
- concentration at 24 h ([1]; 6 mg, Sub 6, 6 mg dose): 4.04 ng/mL
- concentration at 36 h ([1]; 6 mg, Sub 6, 6 mg dose): 6.58 ng/mL
- concentration at 48 h ([1]; 6 mg, Sub 6, 6 mg dose): 5.65 ng/mL
- concentration at 0 h ([1]; 6 mg, Sub 6, 6 mg dose): 8.58 ng/mL
- concentration at 1 h ([1]; 6 mg, Sub 8, 6 mg dose): 19.5 ng/mL
- concentration at 2 h ([1]; 6 mg, Sub 8, 6 mg dose): 10.6 ng/mL
- concentration at 4 h ([1]; 6 mg, Sub 8, 6 mg dose): 3.68 ng/mL
- concentration at 8 h ([1]; 6 mg, Sub 8, 6 mg dose): 1.41 ng/mL
- concentration at 12 h ([1]; 6 mg, Sub 8, 6 mg dose): 0.908 ng/mL
- concentration at 24 h ([1]; 6 mg, Sub 8, 6 mg dose): 0.459 ng/mL
- concentration at 36 h ([1]; 6 mg, Sub 8, 6 mg dose): 1.34 ng/mL
- concentration at 48 h ([1]; 6 mg, Sub 8, 6 mg dose): 0.796 ng/mL
- concentration at 0 h ([1]; 6 mg, Sub 8, 6 mg dose): < 0.1 ng/mL
- concentration at 1 h ([1]; 6 mg, Sub 10, 6 mg dose): 23.5 ng/mL
- concentration at 2 h ([1]; 6 mg, Sub 10, 6 mg dose): 17.2 ng/mL
- concentration at 4 h ([1]; 6 mg, Sub 10, 6 mg dose): 6.93 ng/mL
- concentration at 8 h ([1]; 6 mg, Sub 10, 6 mg dose): 4.95 ng/mL
- concentration at 12 h ([1]; 6 mg, Sub 10, 6 mg dose): 2.85 ng/mL
- concentration at 24 h ([1]; 6 mg, Sub 10, 6 mg dose): 1.77 ng/mL
- concentration at 36 h ([1]; 6 mg, Sub 10, 6 mg dose): 2.6 ng/mL
- concentration at 48 h ([1]; 6 mg, Sub 10, 6 mg dose): 1.63 ng/mL
Structure (SMILES): CC(=O)O[C@]1(C(C)=O)CC[C@H]2[C@@H]3C=C(C)C4=CC(=O)CC[C@]4(C)[C@H]3CC[C@@]21C [megestrol acetate, Pregna-4,6-diene-3,20-dione, 17-(acetyloxy)-6-methyl-]
- decrease of menopausal hot flashes (menopausal hot flashes; daily dose 20 mg): 80%
- decrease of menopausal hot flashes (menopausal hot flashes; daily dose 40 mg): 89%
- decrease of menopausal hot flashes (menopausal hot flashes; daily dose 80 mg): 98%
